From patent US7459455B2, “Pyrimidine compounds” (SmithKline Beecham Corporation, priority 2002, dated 2008)
Where a name gives a salt, the structure may show the parent alone.

Tests used:
[1] = target: T1, Recombinant GST-Tie2 (Homo sapiens, UniProt Q02763); experiment: Tie2 Fluorescence Polarization Kinase Activity Assay (TIE2-FP); assay type: biochemical; settings: activated Tie2, 200 μM ATP
T1 construct: GST
Description: Tie2 Fluorescence Polarization Kinase Activity Assay: (TIE2-FP)
Activation of Recombinant Tie2 Activation:
Recombinant GST-Tie2 was activated by incubating the enzyme in 20 mM Tris-HCl, pH 7.5, 12 mM MgCl2, 100 mM NaCl, 20 μM sodium vanidate, 1 mM DT and 300 μM ATP at room temperature for 2 hours. The activation mixture was then passed through a NAP-25 desalting column (Pharmacia Biotech cat. no. 17-0852-O2) to remove the free ATP. The activated enzyme was stored as aliquots at −80° C. in 20 mM Tris-HCl, pH 7.5 and 100 mM NaCl.
The final assay conditions were 50 mM HEPES, pH 7.5, 5% DMSO (when screening compounds), 200 μM ATP, 5 mM MgCl2, 1 mM DTT, 50 μM sodium vanidate, 1 nM activated enzyme, and 200 μM peptide. IC50's of compounds were measured under subsaturating ATP (200 μM) and varing concentrations of activated Tie2 and peptide substrate (RFWKYEFWR-OH; MW 1873 Da, TFA salt). Panvera Anti-phosphotyrosine antibody (Cat#P2840) and PTK Green Tracer (Cat#P2842) were used to detect the phosphorylated peptide. Polarization was measured on a TECAN Polarion in 138-second cycles for 30 minutes at room temperature. IC50's were then determined from the % polarization using normal calculation methods.

[2] = test system: Human umbilical cord endothelial cells (HUVEC); experiment: VEGF-Driven Cellular Proliferation Assay: BrdU Incorporation Assay (VEGF-C); assay type: cell-based
Description: VEGF-Driven Cellular Proliferation Assay: BrdU Incorporation Assay (VEGF-C)
Human umbilical cord endothelial cells (HUVEC, Clonetics, CC2519) were passaged in Type I collagen-coated 100-mm petridishes in EGM-MV medium (Clonetics, CC3125) at 37 C in a humidified 5% CO2, 95% air incubator. (HUVEC passaged more than 6 times in vitro were discarded and not subjected to assaying.) The cells were harvested using trypsin/EDTA, counted using a haemocytometer and plated at 5000 cells/well in a Type I-collagen coated 96-well plate (Becton Dickinson, 354407) in M199 medium (Gibco BRL, 12340-030) containing 5% FBS (Hyclone, A 1115-L) and gentamicin (at 50 ug/ml, Gibco BRL). After incubation overnight at 37° C., the media were replaced with 100 ul of M199 serum-free medium containing compounds at various concentrations with 0.6% DMSO and gentamicin. The compounds were diluted in serum-free M199 medium from 10 mM stock solutions prepared in 100% DMSO. After a 30 min incubation at 37° C. the cells were fed with 100 ul of serum-free M199 medium containing gentamicin, 0.2% culture-grade bovine serum albumin (BSA, Sigma A1993) and 20 ng/ml of VEGF (R&D systems, 293-VE) or 0.6 ng/ml of basic FGF (R&D systems, 233-FB), and cultured at 37° C. for another 24 h. The cells were pulsed with bromodeoxyuridine (BrdU at 10 μM in serum-free M199) at 37° C. for an additional 24 h. The incorporation of BrdU into the proliferating HUVEC were analyzed using BrdU Cell Proliferation ELISA (Roche Molecular Biochemicals, 1647229) according to the manufacturer's protocols. The optical density at 450 nm was measured with a multilabel counter (ARVO SX, Wallac). The percent inhibition of cell growth was calculated relative to blank control wells. The concentration of test compound that inhibits 50% of cell growth (IC50) was interpolated using nonlinear regression (Levernberg-Marquardt) and the equation, γ=Vmax (1−x/(K+x))+Y2, where “K” was equal to the IC50. The IC50 values were converted to pIC50 values, i.e., −log IC50 in Molar concentration.

[3] = target: T2, GST-VEGFR2 (Homo sapiens, UniProt P35968); experiment: VEGF-R2 Enzyme Assay (VEGF-E), LANCE method; assay type: biochemical; settings: GST-VEGFR2, 75 μM ATP, peptide phosphorylation
T2 construct: GST-VEGFR2, baculovirus expressed recombinant constructs of the intracellular domains of human TIE2 tagged by GST; made in house
T2 sequence (P35968 786-1356 limits assumed): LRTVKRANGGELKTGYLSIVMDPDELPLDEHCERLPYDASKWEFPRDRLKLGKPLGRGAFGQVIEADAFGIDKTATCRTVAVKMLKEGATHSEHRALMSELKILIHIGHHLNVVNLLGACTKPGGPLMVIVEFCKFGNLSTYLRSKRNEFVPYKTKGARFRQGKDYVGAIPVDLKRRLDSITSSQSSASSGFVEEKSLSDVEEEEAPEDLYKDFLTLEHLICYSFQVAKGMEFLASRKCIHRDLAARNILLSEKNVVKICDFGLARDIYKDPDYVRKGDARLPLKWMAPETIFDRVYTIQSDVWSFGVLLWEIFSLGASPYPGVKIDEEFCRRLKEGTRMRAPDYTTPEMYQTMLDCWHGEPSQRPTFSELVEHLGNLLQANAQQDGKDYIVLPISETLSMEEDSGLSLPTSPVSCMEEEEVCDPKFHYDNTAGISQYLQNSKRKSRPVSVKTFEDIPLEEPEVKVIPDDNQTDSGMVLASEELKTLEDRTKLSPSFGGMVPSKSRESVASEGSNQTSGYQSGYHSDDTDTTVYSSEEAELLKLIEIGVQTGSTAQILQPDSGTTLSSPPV
Source text: VEGF-R2 Enzyme Assay VEGF-E)
The VEGF enzyme assay used the LANCE method (Wallac) and GST-VEGFR2, baculovirus expressed recombinant constructs of the intracellular domains of human TIE2 tagged by GST. The method measured the ability of the purified enzymes to catalyse the transfer of the γ-phosphate from ATP onto tyrosine residues in a biotinylated synthetic peptide, (biotin-aminohexyl-EEEEYFELVAKKKK-NH2). This peptide phosphorylation was detected using the following procedure: GST-VEGFR2 was incubated for 40-60 mins at room temperature with 75 μM ATP, 5 mM MgCl2, 0.1 mM DTT, 0.1 mg/mL BSA and the test compound (diluted from a 10 mM stock in DMSO for desired concentration) in 100 mM HEPES buffer. The reaction was stopped by the addition of EDTA (final concentration 50 mM). Streptavidin linked-APC (allophycocyanin, Molecular Probe) and Europium-labeled anti-phosphorylated tyrosile antibody (Wallac) were then added at the final concentration of 15 nM and 1 nM, respectively. The APC signal was measured using an ARVO multilabel counter (Wallac Berthold, Japan). The percent inhibition of activity was calculated relative to blank control wells. The concentration of test compound that inhibits 50% of activity (IC50) was interpolated using nonlinear regression (Levernberg-Marquardt) and the equation, γ=Vmax (1−x/(K+x))+Y2, where “K” was equal to the IC50. The IC50 values were converted to pIC50 values, i.e., −log IC50 in Molar concentration.

Measured: IC50

T1 sequence (Q02763 770-1124 limits assumed): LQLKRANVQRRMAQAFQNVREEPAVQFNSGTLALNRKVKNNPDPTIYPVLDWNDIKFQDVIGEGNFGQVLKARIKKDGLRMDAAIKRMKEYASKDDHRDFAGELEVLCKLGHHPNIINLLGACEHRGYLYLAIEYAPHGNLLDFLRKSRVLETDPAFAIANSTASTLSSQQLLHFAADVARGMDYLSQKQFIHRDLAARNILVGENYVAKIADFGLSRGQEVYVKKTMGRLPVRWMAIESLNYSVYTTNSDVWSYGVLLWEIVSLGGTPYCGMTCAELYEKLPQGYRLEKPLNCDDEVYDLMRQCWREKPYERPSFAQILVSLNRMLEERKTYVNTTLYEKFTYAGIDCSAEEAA

CN(c1ccc(NC(=O)Nc2ccc(OC(F)(F)F)cc2)cc1)c1ccnc(Nc2cccc(S(N)(=O)=O)c2)n1 [Example 1, 3-{[4-(methyl{4-[({[4-(trifluoromethoxy)phenyl]amino}carbonyl)amino]phenyl}-amino)pyrimidin-2-yl]amino}benzenesulfonamide]
< 100 nM: all assays above

CN(c1ccc(NC(=O)Nc2ccc(C(F)(F)F)cc2)cc1)c1ccnc(Nc2cccc(S(N)(=O)=O)c2)n1 [Example 2, 3-{[4-(methyl{4-[({[4-(trifluoromethyl)phenyl]amino}carbonyl)amino]phenyl}amino)pyrimidin-2-yl]amino}benzenesulfonamide]
< 100 nM: all assays above

CN(c1ccc(NC(=O)Nc2ccc(Oc3ccccc3)cc2)cc1)c1ccnc(Nc2cccc(S(N)(=O)=O)c2)n1 [Example 3, 3-[(4-{methyl[4-({[(4-phenoxyphenyl)amino]carbonyl}amino)phenyl]amino}-pyrimidin-2-yl)amino]benzenesulfonamide]
< 100 nM: all assays above

Cc1cccc(NC(=O)Nc2ccc(N(C)c3ccnc(Nc4cccc(S(N)(=O)=O)c4)n3)cc2)c1 [Example 4, 3-[(4-{methyl[4-({[(3-methylphenyl)amino]carbonyl}amino)phenyl]amino}pyrimidin-2-yl)amino]benzenesulfonamide]
< 100 nM: all assays above

CN(c1ccc(NC(=O)NCc2ccccc2Cl)cc1)c1ccnc(Nc2cccc(S(N)(=O)=O)c2)n1 [Example 5, 3-({4-[[4-({[(2-chlorobenzyl)amino]carbonyl}amino)phenyl](methyl)amino]pyrimidin-2-yl}amino)benzenesulfonamide]
< 100 nM: all assays above

CCc1cccc(NC(=O)Nc2ccc(N(C)c3ccnc(Nc4cccc(S(N)(=O)=O)c4)n3)cc2)c1 [Example 6, 3-({4-[[4-({[(3-ethylphenyl)amino]carbonyl}amino)phenyl](methyl)amino]pyrimidin-2-yl}amino)benzenesulfonamide]
< 100 nM: all assays above

CN(c1ccc(NC(=O)Nc2cccc(F)c2)cc1)c1ccnc(Nc2cccc(S(N)(=O)=O)c2)n1 [Example 7, 3-({4-[[4-({[(3-Fluorophenyl)amino]corbonyl}amino)phenyl](methyl)amino]pyrimidin-2-yl}amino)benzenesulfonamide]
< 100 nM: all assays above

CCS(=O)(=O)c1ccc(OC)c(Nc2nccc(N(C)c3ccc(NC(=O)Nc4cccc(Cl)c4)cc3)n2)c1 [Example 8, N-(3-Chlorophenyl)-N′-{4-[(2-{[5-(ethylsulfonyl)-2-methoxyphenyl]amino}pyrimidin-4-yl)(methyl)amino]phenyl}urea]
< 100 nM: all assays above

CN(c1ccc(NC(=O)Nc2cccc(Cl)c2)cc1)c1ccnc(Nc2cccc(S(N)(=O)=O)c2)n1 [Example 9, 3-({4-[[4-({[(3-Chlorophenyl)amino]carbonyl}amino)phenyl](methyl)amino]-pyrimidin-2-yl}amino)benzenesulfonamide]
< 100 nM: all assays above

CN(c1ccc(NC(=O)Nc2ccccc2)cc1)c1ccnc(Nc2cccc(S(N)(=O)=O)c2)n1 [Example 10, 3-({4-[{4-[(anilinocarbonyl)amino]phenyl}(methyl)amino]pyrimidin-2-yl}amino)benzenesulfonamide]
< 100 nM: all assays above

CN(c1ccc(NC(=O)Nc2cc(C(F)(F)F)ccc2F)cc1)c1ccnc(Nc2cccc(S(N)(=O)=O)c2)n1 [Example 11, 3-({4-[{4-[({[2-Fluoro-5-(trifluoromethyl)phenyl]amino}carbonyl)amino]phenyl}(methyl)amino]pyrimidin-2-yl}amino)benzenesulfonamide]
< 100 nM: all assays above

CN(c1ccc(NC(=O)Nc2cccc(F)c2)cc1)c1ccnc(Nc2ccc(CS(C)(=O)=O)cc2)n1 [Example 12, N-(3-fluorophenyl)-N′-(4-{methyl[2-({4-[(methylsulfonyl)methyl]phenyl}amino)pyrimidin-4-yl]amino}phenyl)urea hydrochloride]
< 100 nM: all assays above

CN(c1ccc(NC(=O)Nc2cc(C(F)(F)F)ccc2F)cc1)c1ccnc(Nc2ccc(CS(C)(=O)=O)cc2)n1 [Example 13, N-[2-fluoro-5-(trifluoromethyl)phenyl]-N′-(4-{methyl[2-({4-(methylsulfonyl)methyl]phenyl}amino)pyrimidin-4-yl]amino}phenyl)urea hydrochloride]
< 100 nM: all assays above

CN(c1cccc(NC(=O)Nc2cc(C(F)(F)F)ccc2F)c1)c1ccnc(Nc2cccc(S(N)(=O)=O)c2)n1 [Example 14, 3-({4-[{3-[({[2-Fluoro-5-(trifluoromethyl)phenyl]amino}carbonyl)amino]phenyl}(methyl)amino]pyrimidin-2-yl}amino)benzenesulfonamide]
< 100 nM: all assays above

CN(c1cccc(NC(=O)Nc2cccc(Cl)c2)c1)c1ccnc(Nc2cccc(S(N)(=O)=O)c2)n1 [Example 15, 3-({4-[[3-({[(3-Chlorophenyl)amino]carbonyl}amino)phenyl](methyl)amino]pyrimidin-2-yl}amino)benzenesulfonamide]
< 100 nM: all assays above
